{"source": "patent US20240041875A1", "about": "(priority 2022, published 2024)", "key": {"SARS-CoV-2": {"system": "SARS-CoV-2", "assay_type": "cell-based"}, "SARS-CoV-2 WT strain": {"system": "SARS-CoV-2 WT strain", "design": "species or system K18-hACE2 mice", "conditions": "mouse, in vivo"}, "VSV-SARS-CoV-2 [1]": {"system": "VSV-SARS-CoV-2", "assay_type": "cell-based"}, "VSV-SARS-CoV-2 [2]": {"system": "VSV-SARS-CoV-2", "assay_type": "cell-based", "remark": "listed apart in the source"}, "A549-ACE2 cells": {"system": "A549-ACE2 cells", "assay": "Cytotoxicity to A549-ACE2 cells, CellTiter-Glo Assay", "assay_type": "cell-based, human", "conditions": "0.1625 nM to 2.5 nM, 24 h", "procedure": "FIG. 6. Ponatinib cytotoxicity to A549-ACE2 cells at the concentration range of 0.1625 nM to 2.5 nM). A549-ACE2 cells were treated with ponatinib for 24 h and the cell viability was detected by CellTiter-Glo Assay."}}, "data": [{"smiles": "Cc1ccc(C(=O)Nc2ccc(CN3CCN(C)CC3)c(C(F)(F)F)c2)cc1C#Cc1cnc2cccnn12", "note": "[ponatinib]", "values": [{"measurement": "reduction of viral infection by live SARS-CoV-2 (plaque assay)", "setting": "SARS-CoV-2", "result": "significantly reduced viral infection"}, {"measurement": "body weight of infected mice", "setting": "SARS-CoV-2 WT strain", "result": "two of the five mice treated with ponatinib started to regain body weight on day 7"}, {"measurement": "expression of SARS-CoV-2 nucleocapsid protein (NP) in lung tissues (IHC)", "setting": "SARS-CoV-2 WT strain", "result": "markedly lower"}, {"measurement": "survival of infected mice", "setting": "SARS-CoV-2 WT strain", "result": "lived significantly longer than the control group"}, {"measurement": "survival of infected mice at different doses", "setting": "SARS-CoV-2 WT strain", "result": "Dose-dependent effect"}, {"measurement": "viral RNA copies in the lung (quantitative real-time PCR)", "setting": "SARS-CoV-2 WT strain", "result": "much lower than in the PBS group"}, {"measurement": "viral titer in the lung (plaque assay)", "setting": "SARS-CoV-2 WT strain", "result": "significantly decreased the viral load in the lung"}, {"measurement": "inhibition of VSV-SARS-CoV-2 infectivity", "setting": "VSV-SARS-CoV-2 [1]", "result": "significantly inhibited VSV-SARS-CoV-2 in a dose-dependent manner"}, {"measurement": "inhibition of VSV-SARS-CoV-2 under four treatment conditions (concomitant, virus pre-incubated, cells pretreated, treatment after infection)", "setting": "VSV-SARS-CoV-2 [1]", "result": "could inhibit VSV-SARS-CoV-2 under all these conditions"}, {"measurement": "inhibition of viral infection / plaque formation, side-by-side comparison", "setting": "VSV-SARS-CoV-2 [1]", "result": "inhibited plaque formation"}, {"measurement": "screening outcome, inhibition of infection by VSV-SARS-CoV-2", "setting": "VSV-SARS-CoV-2 [2]", "result": "several candidates including ponatinib"}, {"measurement": "A549-ACE2 cell viability", "setting": "A549-ACE2 cells", "result": "no effect on A549-ACE2 cell viability"}]}, {"smiles": "Cc1ccc(C(=O)Nc2ccc(CN3CCN(C)CC3)c(C(F)(F)F)c2)cc1C#Cc1cnc2[nH]ncc2c1", "note": "[olverembatinib]", "values": [{"measurement": "inhibition of viral infection / plaque formation, side-by-side comparison", "setting": "VSV-SARS-CoV-2 [1]", "result": "not olverembatinib treatment inhibited plaque formation"}]}]}
